Data reported in patent publication US5066489A (Cetus Corporation, priority 1990, dated 1991).

Experiments:
[1] = DTIC pharmacokinetics in patients (first two cycles, 12 patients); format: in vivo, human; conditions: effect of IL-2; first two cycles in 12 patients
Description: (§1) For the First Cycle--Patients were admitted to the hospital on a Sunday evening for a Hickman catheter placement on the succeeding Monday. On Day 1 (Tuesday), DTIC was administered by continuous 24 hour infusion at a dose of 1.0 gm/m^2 intravenously. Pharmacokinetic studies were performed on Days 1 and 2.
DTIC pharmokinetics were performed on the first two cycles in 12 patients.

[2] = cited from earlier work
[3] = Phase I-II study of IL-2 plus DTIC in melanoma patients: toxicity; format: in vivo, human; conditions: DTIC 1.0 gm/m^2 24 h infusion
Description: Patients, between 18 to 70 years of age, were admitted for three, separate Phase I-II studies. Each patient had to meet the following criteria for entering the study:
1. Dose and Schedule--Twenty patients received three cycles of Interleukin-2 in combination with DTIC. Each cycle was 28 days in duration. All drugs were administered by hospital staff either while in-patient or in the out-patient clinic. Patients received 1.0 gm/m^2 of DTIC as an IV continuous infusion over 24 hours every 4 weeks.
as §1
The dose schedule was identical to that given for cycle two.

[4] = test system: metastatic melanoma; conditions: cited from earlier work

| Compound | peak plasma levels [1] | hematologic and GI toxicities ([2]; DTIC dose regimen) | acute toxicity ([2]; five-day continuous infusions) | dosage adjustments for nausea/vomiting or for myelosuppression [3] | mild nausea and vomiting ([3]; of the courses) | antitumor schedule dependency ([4]; DTIC dose regimens) | single agent response rate ([4]; Roth and Kirkwood (1987)) | most promising response rate (%) observed alone ([4]; complete plus partial responses, treatment of melanoma, Roth (DTIC), Rosenberg et al 1987 (IL-2)) | dose responses ([4]; five-day continuous infusions) | responsiveness of visceral metastases (gastrointestinal tract, liver, brain) ([4]; versus soft tissue disease) |
| --- | --- | --- | --- | --- | --- | --- | --- | --- | --- | --- |
| NC(=O)c1[nH]cnc1N [AIC, 5-aminoimidazole 4-carboxamide] | not altered by IL-2 | – | – | – | – | – | – | – | – | – |
| CN(C)N=Nc1[nH]cnc1C(N)=O [DTIC, dimethyl-triazeno-imidazole-carboxmide] | not altered by IL-2 | vary with the DTIC dose regimen used | least acute toxicity | required no dosage adjustments | 96% | has not been observed | 24% | approximately 24% | equivalent dose responses | relatively less responsive than soft tissue disease |
